# In US8748395B2, “Cell-permeable peptide inhibitors of the JNK signal transduction pathway” (Xigen Inflammation Ltd., priority 2006, dated 2014):
# Entries after “also recorded” stand apart in the source; their conditions may differ. Square brackets hold non-standard residues; d marks the D form. Peptide text beside a SMILES is read from it.
# Columns and labels:
# [1] = tested on: recombinant JNK1, JNK2 and JNK3; assay: Solid phase kinase assay: JNK-mediated phosphorylation of c-Jun, ATF2 and Elk1; type: biochemical; conditions: GST-Jun (aa 1-73), 0-250 μM dosage study; fold less efficient
# Experimental: The effects of the peptides on JNKs-mediated phosphorylation of their target transcription factors were investigated in vitro. Recombinant and non activated JNK1, JNK2 and JNK3 were produced using a TRANSCRIPTION AND TRANSLATION rabbit reticulocyte lysate kit (PROMEGA®) and used in solid phase kinase assays with c-jun, ATF2 and Elk1, either alone or fused to glutathione-S-transferase (GST), as substrates. Dose response studies were performed wherein inventive L-TAT or L-TAT-IB1(s) peptides (0-25 μM) were mixed with the recombinant JNK1, JNK2, or JNK3 kinases in reaction buffer (20 mM Tris-acetate, 1 mM EGTA, 10 mM p-nitrophenyl-phosphate (pNPP), 5 mM sodium pyrophosphate, 10 mM p-glycerophosphate, 1 mM dithiothreitol) for 20 minutes. The kinase reactions were then initiated by the addition of 10 mM MgCl2 and 5 pCi^33P-γ-dATP and 1 μg of either GST-Jun (aa 1-89), GST-AFT2 (aa 1-96) or GST-ELK1 (aa 307-428). GST-fusion proteins were purchased from Stratagene (La Jolla, Calif.).
# Ten μL of glutathione-agarose beads were also added to the mixture. Reaction products were then separated by SDS-PAGE on a denaturing 10% polyacrylamide gel. Gels were dried and subsequently exposed to X-ray films (Kodak).
# The ability of D-TAT, inventive D-TAT-IB1(s) and inventive L-TAT-IB1 (s) peptides (0-250 μM dosage study) to inhibit GST-Jun (aa 1-73) phosphorylation by recombinant JNK1, JNK2, and JNK3 by were analyzed as described above. Overall, D-TAT-IB1(s) peptide decreased JNK-mediated phosphorylation of c-Jun, but at levels approximately 10-20 fold less efficiently than L-TAT-IB1(s).
# [2] = tested on: WiDr cells; assay: Irradiation (30 Gy) induced apoptosis of WiDr cells; type: cell-based, human; conditions: 1 μM added 30 minutes before 30 Gy, analyzed 48 hours later
# Experimental: JNK is also activated by ionizing radiation. To determine whether inventive TAT-IB(s) peptides would provide protection against radiation-induced JNK damage, “WiDr” cells were irradiated (30 Gy) in presence or absence of D-TAT, inventive L-TAT-IB1(s) or inventive D-TAT-IB1(s) peptides (1 μM added 30 minutes before irradiation). Control cells (CTRL) were not irradiated. Cells were analyzed 48 hours later by means of PI and Hoechst 3342 staining, as described above. N=3, SEM are indicated.
# [3] = tested on: 12-days-old rats; assay: Neuroprotection against focal cerebral ischemia, permanent MCAO model; type: in vivo
# Source text: Focal cerebral ischemia was induced in 12-days-old rats. Pups were anesthetized in an induction chamber with 2% isoflurane and during the operation anaesthesia was maintained using a mask under 2% isoflurane. MCAO was induced by electrocoagulating a main branch of the middle cerebral artery (MCA). Rats were placed on the right side, and an oblique dermal incision was made between the ear and eye. After excision of the temporal muscle, the cranial bone was removed from the frontal suture to a level below the zygomatic arch. […] The cranial skin incision was then closed. Rat pups were then placed in an incubator maintained at 37° C. until they awoke, and were then transferred to their mother.
# 6 hours later an inventive chimeric D-TAT-IB1(s) peptide according to SEQ ID NO: 11 was injected intraperitoneally. 24 hours after the coagulation, the rats were anesthetized with chloral hydrate and perfused through the ascending aorta with 4% paraformaldehyde in PBS. Brains were then removed and kept for 2 hours in the same fixative solution, and placed in a gradient of 30% sucrose in PBS for about 15 hours at 4° C. Brains were frozen in isopentane (−40° C.) and stored at −20° C. Coronal cryostat sections of 50 μm were collected on glass slides. The sections were stained with cresyl violet. Each tenth section was analyzed and the total volume of the lesion was calculated using the Neuroleucida programme. In the control group A, the mean lesion volume was 21.47 mm^3. […] A significant statistic difference is observed between group A and groups C, E and F (one-tailed t-test, p=0.030, p=0.002, p=0.001 respectively).
# [4] = tested on: male ICR-CD1 mice; assay: Neuroprotection after iv administration against focal cerebral ischaemia, transient MCAO model; type: in vivo
# Experimental: Transient ischemia in adult mice. Using male ICR-CD1 mice (6 weeks old; 18-37 g; Harlan), we provoked ischemia by introducing a filament from the common carotid artery into the internal carotid and advancing it into the arterial circle, thereby occluding the middle cerebral artery. We measured regional cerebral blood flow by laser Doppler flowmetry, with a probe fixed on the skull throughout the ischemia until 10 min after reperfusion. Rectal temperature was measured and maintained at 37° C. The mice were killed 48 h after reperfusion. Serial cryostat sections 20 μm thick were traced using a computer-microscope system equipped with the Neurolucida program (MicroBrightField) and the volumes of the ischemic area and of the whole brain were calculated (blinded) with the Neuroexplorer program. XG-102 0.3=0.3 mg/kg, XG-102 1=1 mg/kg, XG-102 5=5 mg/kg
# The infarct volume sizes (mm^3) after bolus iv administration of placebo and XG-102 0.3, […] 6 hours after reperfusion (30 minutes clamp) in an adult mice model were as follows.
# [5] = tested on: guinea pigs; assay: Treatment of noise trauma, hearing threshold shifts by auditory brainstem response; type: in vivo
# Experimental: Changes of the hearing threshold level (dB sound pressure level) in guinea pigs following noise trauma (120 dB at 6 kHz during 30 minutes) at 8 kHz, the maximally impacted frequency, measured 20 minutes (temporary threshold shift, TTS, grey) and 15 days post noise exposure (permanent threshold shift). Guinea pigs received D-TAT-IB1(s) in a hyaluronic acid gel deposited onto the cochlear round window membrane either 30 minutes before, 30 minutes after or 4 hours after noise trauma; untreated ears served as control. TTS was measured 20 minutes post noise trauma, while PTS (black), which corresponds to permanent hearing loss, was determined after 15 days.
# D-TAT-IB1(s) was applied onto the round window membrane of the cochlea of 3 groups of guinea pigs (each group with 6 animals) in 2 microliters of a gel formulation of 2.6% buffered hyaluronic acid (Hylumed, Genzyme Corp.) at a concentration of 100 μM either 30 minutes before noise trauma (120 dB at 6 kHz during 30 minutes) or 30 minutes or 4 hours thereafter. Untreated ears served as control. Hearing threshold shifts were evaluated by auditory brainstem response measurements 20 minutes after noise trauma (temporary threshold shift, TTS) and 15 days following the trauma (permanent threshold shift, PTS). […] Thus, D-TAT-IB1(s) is a very effective otoprotective compound in case of noise trauma.
structure (smiles),measurement,setting,value
CC(C)C[C@@H](NC(=O)[C@@H](Cc1ccccc1)NC(=O)[C@H]1CCCN1C(=O)[C@@H](CCC(N)=O)NC(=O)[C@H](NC(=O)[C@H]1CCCN1C(=O)[C@@H](CCCNC(=N)N)NC(=O)[C@@H](CO)NC(=O)[C@@H](CCC(N)=O)NC(=O)[C@H](N)CC(=O)O)C(C)C)C(=O)N[C@H](CC(N)=O)C(=O)N[C@H](CC(C)C)C(=O)N[C@@H](C(=O)N[C@@H](C(=O)N1CCC[C@@H]1C(=O)N[C@H](CCCNC(=N)N)C(=O)N[C@H](CCCCN)C(=O)N1CCC[C@@H]1C(=O)N[C@H](CCCNC(=N)N)C(=O)N1CCC[C@@H]1C(=O)N1CCC[C@@H]1C(=O)N[C@H](CCCNC(=N)N)C(=O)N[C@H](CCCNC(=N)N)C(=O)N[C@H](CCCNC(=N)N)C(=O)N[C@H](CCC(N)=O)C(=O)N[C@H](CCCNC(=N)N)C(=O)N[C@H](CCCNC(=N)N)C(=O)N[C@H](CCCCN)C(=O)N[C@H](CCCCN)C(=O)N[C@H](CCCNC(=N)N)C(=O)NCC(=O)O)[C@H](C)O)[C@H](C)O [D-TAT-IB1(s)] (H-[dD][dQ][dS][dR][dP][dV][dQ][dP][dF][dL][dN][dL][dT][dT][dP][dR][dK][dP][dR][dP][dP][dR][dR][dR][dQ][dR][dR][dK][dK][dR]G-OH),"decrease of JNK-mediated phosphorylation of c-Jun, efficiency relative to L-TAT-IB1(s)",[1],10-20 fold
same,prevention of irradiation induced apoptosis,[2],able to prevent irradiation induced apoptosis
same,cerebral protection compared to saline group,"[3]; dose of 1 mg/kg, 0.003 mg/kg and 0.0003",total sample was not large enough to reach a significant difference
same,cerebral protection,"[3]; dose of 11 mg/kg, 3 mg/kg, 0.3 mg/kg and 0.03 mg/kg i.p.",contributes to a cerebral protection
same,dose at which the best protection is observed,[3]; i.p. 6 hours after MCAO,0.03 mg/kg
same,mean lesion volume versus control group,"[3]; i.p. 6 hours after MCAO, analysis at 24 hours, all treated groups",lower mean than the control group
same,"infarct volume sizes, moyenne","[4]; 0.3 mg/kg bolus iv 6 hours after reperfusion (30 minutes clamp), n = 5",16 mm^3
same,"infarct volume sizes, moyenne","[4]; 1 mg/kg bolus iv 6 hours after reperfusion (30 minutes clamp), n = 1",16 mm^3
same,"infarct volume sizes, moyenne","[4]; XG102 3, bolus iv 6 hours after reperfusion (30 minutes clamp), n = 5",15 mm^3
same,neuroprotection,"[4]; i.v. administration, mice killed 48 h after reperfusion",provides efficient neuroprotection
same,"protection against permanent hearing loss (PTS, 15 days)","[5]; 100 μM in hyaluronic acid gel on round window membrane, 30 minutes before, 30 minutes or 4 hours after noise trauma",protects substantially against permanent hearing loss; also recorded: protected against permanent hearing loss even if applied after exposure to excessive noise
same,PTS in treated ears versus untreated control ears,"[5]; administration 30 minutes and 4 hours post trauma, 8 kHz",significantly lower
